Experimental data published in patent US20240366648A1, “NAD-AUGMENTATION THERAPY FOR PARKINSON'S DISEASE” (Vestlandets Innovasjonsselskap AS (VIS), priority 2021, published 2024).

Key:
total NAD in PBMCs = assay: NAD measurement in PBMCs, NADMed method; format: in vivo, human
From the text: In addition to these analyses, we measured NAD levels in patient PBMC using a different approach (NADMed method). […] However, the trend was clear and convincing.
FIG. 16: NAD measurement in PBMCs from the study cohort, using the NADMed method.

NAD metabolome in PBMCs = assay: Metabolomic analysis (LC-MS) in PBMCs; format: in vivo, human; conditions: oral NR 1000 mg/day, 30 days
Procedure: Biological material was collected at both visits, following a minimum 6-hour fasting and within 6 hours after study drug intake for visit 2. Sampling included whole blood, serum, peripheral blood mononuclear cells (PBMCs), cerebrospinal fluid (CSF) and muscle biopsy. Lumbar puncture was performed according to standard clinical procedures to collect 10 ml CSF. Needle biopsy of the vastus lateralis muscle was performed using a Bard Magnum biopsy gun (BD©, United States) and 12G×10 cm biopsy needles. Muscle biopsies were immediately dissected to remove any non-muscle tissue (e.g., fat or fascia) and snap-frozen in liquid nitrogen.
Standard substances of all the targeted compounds were used to prepare stock standard solutions and these solutions were mixed and diluted to make serially diluted standard solutions in an internal standard solution containing 11 isotope-labeled compounds (NAD-13C5, NADH-d5, nicotinamide riboside-d4, nicotinic-d4 acid, nicotinic acid-d4 riboside, AMP-15N5, ATP-13C10, nicotinamide-d4, 1-methylnicotinamide-d3, adenosine-13C5 and GTP-13C10) in a concentration range of 0.0002 to 20 nmol/mL. […] For metabolomic analyses in PBMCs, several aliquots of one sample were thawed on ice, centrifuged (10 min, 350×g, 4° C.), resuspended in ice-cold PBS and counted on a countess II cell counter. […]
For UPLC-MRM/MS, 10 μL aliquots of each standard solution and each sample solutions were injected to run LCMRM/MS either on a Waters Acquity UPLC coupled to a Sciex QTRAP 6500 Plus mass spectrometer with (−) ion detection or ESI or on an Agilent 1290 UHPLC system coupled to an Agilent 6495B QQQ mass spectrometer with (+) ion detection. […] Concentrations of individual metabolites detected in each sample were calculated by constructing linear-regression curves of individual metabolites with the analyte-to-internal standard peak area ratios (As/Ai) of standard solutions in each set of LC-MS runs and then by interpolating the calibration curves with the as/Ai values measured from injections of sample solutions in an appropriate concentration range for each compound. […]

NC(=O)c1ccc[n+]([C@@H]2O[C@H](CO)[C@@H](O)[C@H]2O)c1 [NR, nicotinamide riboside]
NAD levels in PBMC, between visits (total NAD in PBMCs; NR group, did not reach statistical significance in paired t-test): increase
between visit change in PBMC NAD levels, NR vs placebo group (total NAD in PBMCs; p=0.0256): significantly higher increase
Me-Nam level in PBMCs (NAD metabolome in PBMCs): increase
NAAD level in PBMCs (NAD metabolome in PBMCs): increase
acetyl-CoA, CoA, SAM and its metabolites, energy compounds such as ATP in PBMCs (NAD metabolome in PBMCs): no significant change
